From PubChem BioAssay AID602446 (National Center for Advancing Translational Sciences (NCATS), 2012) come the findings set out here.

For orientation: efflux ratio means a quotient of directional permeabilities that is used to spot active efflux.

The series relates to Caco-2 permeability efflux ratio. Briefly: High Content Assay for Compounds that inhibit the Assembly of the Perinucleolar Compartment: Efflux Ratio. The text has this: The perinucleolar compartment (PNC) is a non-membrane-bound nuclear subdomain that is associated with but structurally distinct from the nucleolus. The PNC is a heritable trait, in which the number of PNCs per cell in daughter cells often mimics that of their mother cells. The PNC is heterogeneous in shape, is stable through interphase, disassembles during mitosis, and reassembles in early G1. The PNC is concentrated with newly synthesized RNA polymerase III (pol III) RNAs (MRP RNA, RNAse P H1 RNA, hY RNAs[hY1, 2, 5], Alu RNA, and SRP [7SL] RNA) and RNA binding proteins (nucleolin, PTB, CUG-BP, KSRP, Raver1, Raver2, and Rod).
In collaboration between Sui Huang from Northwestern University and the NCGC, a high content assay was developed and screened. The hits were then tested in follow-up assays. High-content tumor cell migration assays in 3-dimensional extracellular matrices are powerful tools for modeling and understanding the biology of this critical step in the process of metastasis. However, most of the available methods are not amenable to the throughput required by studies of comparative pharmacology or small scale screening. […]
8. […] The T0, LY and T90, LY plates are read by FlexStation 3 at excitation of 485 nm and emission of 535 nm to determine LY permeability. […]

Consider `N=c1c2c(-c3ccccc3)c(-c3ccccc3)n(Cc3ccccc3)c2ncn1C1CCC(O)CC1` (stereo unspecified), for which the efflux ratio is 11.
